Results as given in patent US12447153B2, “HER2 mutation inhibitors” (Array BioPharma Inc., priority 2021, dated 2025).

Columns and labels:
EGFR wild type (EGFR WT) = EGFR wild type (EGFR WT) (Homo sapiens (Human), UniProt P00533); assay: Cellular Phosphorylation Assay, Assay 5 (EGF-stimulated EGFR phosphorylation, NIH 3T3 cells); format: cell-based
ErbB2 WT = ErbB2 WT (Homo sapiens (Human), UniProt P04626); assay: ErbB Enzyme Assay (HTRF KinEASE-TK), Assay 2; format: biochemical
BCRP = BCRP (Homo sapiens (Human), UniProt Q9UNQ0); assay: BCRP MDCKII efflux assay (Assay 7); format: in vitro ADME; conditions: dog; efflux ratio Papp(B-A)/Papp(A-B), BCRP MDCKII cells; read-out: Assay 7 Pe Ratio
Method: Assay conditions included with and without the BCRP-specific inhibitor, KO143, at a concentration of 0.3 μM to ascertain the contribution of BCRP to the efflux value of the test compound.
Final organic concentration in the assay was 1%.

[1] = target: ErbB2 with Exon 20 YVMA insertion (HER2-YVMA) (Homo sapiens (Human), UniProt P04626, INS775YVMA); assay: Cellular Phosphorylation Assay, Assay 4 (constitutive ErbB2 phosphorylation, NIH 3T3 cells); format: cell-based
EGFR = EGFR (Homo sapiens (Human), UniProt P00533); assay: ErbB Enzyme Assay (HTRF KinEASE-TK), Assay 3; format: biochemical
[2] = EGF-stimulated EGFR WT phosphorylation
[3] = cellular EGFR WT phosphorylation, EGF-stimulated
[4] = cellular ErbB2 YVMA phosphorylation

ErbB2 with Exon 20 YVMA insertion (HER2-YVMA), sequence (P04626 other isoform, or with tags, fused parts or gaps ins YVMA behind 775): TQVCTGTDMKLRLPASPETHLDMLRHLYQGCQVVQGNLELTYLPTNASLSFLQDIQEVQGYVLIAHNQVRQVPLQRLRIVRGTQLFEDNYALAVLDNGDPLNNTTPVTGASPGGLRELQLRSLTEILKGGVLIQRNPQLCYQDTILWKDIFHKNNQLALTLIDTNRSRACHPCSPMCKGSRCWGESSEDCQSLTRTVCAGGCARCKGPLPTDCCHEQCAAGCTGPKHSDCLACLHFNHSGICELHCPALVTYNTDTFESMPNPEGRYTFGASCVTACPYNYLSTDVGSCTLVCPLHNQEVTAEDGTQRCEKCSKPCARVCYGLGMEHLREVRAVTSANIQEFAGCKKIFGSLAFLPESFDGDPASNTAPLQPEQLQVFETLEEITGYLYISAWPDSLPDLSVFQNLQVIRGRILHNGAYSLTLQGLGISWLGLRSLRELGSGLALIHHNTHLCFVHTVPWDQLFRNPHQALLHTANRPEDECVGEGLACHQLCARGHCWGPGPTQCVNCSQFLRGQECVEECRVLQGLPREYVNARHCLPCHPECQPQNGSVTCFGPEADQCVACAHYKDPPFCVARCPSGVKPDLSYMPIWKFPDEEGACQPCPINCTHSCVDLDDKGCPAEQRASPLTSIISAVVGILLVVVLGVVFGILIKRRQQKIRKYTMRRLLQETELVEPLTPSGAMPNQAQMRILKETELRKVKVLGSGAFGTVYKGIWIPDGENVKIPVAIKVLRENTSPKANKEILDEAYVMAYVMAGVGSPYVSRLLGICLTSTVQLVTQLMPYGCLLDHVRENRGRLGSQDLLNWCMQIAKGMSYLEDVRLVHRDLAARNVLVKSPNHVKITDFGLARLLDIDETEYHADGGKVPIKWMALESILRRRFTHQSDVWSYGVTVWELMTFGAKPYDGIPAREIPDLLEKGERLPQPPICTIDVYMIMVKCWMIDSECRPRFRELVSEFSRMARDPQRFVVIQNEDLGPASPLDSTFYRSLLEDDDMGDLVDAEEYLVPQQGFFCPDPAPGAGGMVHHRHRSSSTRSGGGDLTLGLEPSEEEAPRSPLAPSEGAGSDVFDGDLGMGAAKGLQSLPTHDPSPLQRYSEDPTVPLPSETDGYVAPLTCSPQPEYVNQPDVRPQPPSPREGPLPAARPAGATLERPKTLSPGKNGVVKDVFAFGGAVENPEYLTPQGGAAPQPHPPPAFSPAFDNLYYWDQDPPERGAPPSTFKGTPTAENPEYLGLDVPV
BCRP, sequence (Q9UNQ0 whole entry): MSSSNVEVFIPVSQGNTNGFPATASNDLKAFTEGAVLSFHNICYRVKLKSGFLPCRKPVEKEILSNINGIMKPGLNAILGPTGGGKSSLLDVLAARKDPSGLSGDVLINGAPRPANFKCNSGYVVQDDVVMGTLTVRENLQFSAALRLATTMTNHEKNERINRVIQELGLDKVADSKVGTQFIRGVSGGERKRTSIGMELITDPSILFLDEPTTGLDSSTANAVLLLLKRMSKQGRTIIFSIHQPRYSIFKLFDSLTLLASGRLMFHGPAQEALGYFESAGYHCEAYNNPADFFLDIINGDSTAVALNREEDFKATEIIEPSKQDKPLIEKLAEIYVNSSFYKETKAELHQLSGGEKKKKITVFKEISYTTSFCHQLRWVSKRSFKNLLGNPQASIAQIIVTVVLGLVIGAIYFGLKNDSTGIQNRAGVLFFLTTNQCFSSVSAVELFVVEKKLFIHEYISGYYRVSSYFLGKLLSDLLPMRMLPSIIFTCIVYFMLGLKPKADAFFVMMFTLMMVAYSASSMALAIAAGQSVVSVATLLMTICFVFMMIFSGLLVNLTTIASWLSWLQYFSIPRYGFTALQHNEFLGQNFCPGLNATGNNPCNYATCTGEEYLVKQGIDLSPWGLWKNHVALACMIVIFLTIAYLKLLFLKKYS
EGFR wild type (EGFR WT), sequence (P00533 25-1210): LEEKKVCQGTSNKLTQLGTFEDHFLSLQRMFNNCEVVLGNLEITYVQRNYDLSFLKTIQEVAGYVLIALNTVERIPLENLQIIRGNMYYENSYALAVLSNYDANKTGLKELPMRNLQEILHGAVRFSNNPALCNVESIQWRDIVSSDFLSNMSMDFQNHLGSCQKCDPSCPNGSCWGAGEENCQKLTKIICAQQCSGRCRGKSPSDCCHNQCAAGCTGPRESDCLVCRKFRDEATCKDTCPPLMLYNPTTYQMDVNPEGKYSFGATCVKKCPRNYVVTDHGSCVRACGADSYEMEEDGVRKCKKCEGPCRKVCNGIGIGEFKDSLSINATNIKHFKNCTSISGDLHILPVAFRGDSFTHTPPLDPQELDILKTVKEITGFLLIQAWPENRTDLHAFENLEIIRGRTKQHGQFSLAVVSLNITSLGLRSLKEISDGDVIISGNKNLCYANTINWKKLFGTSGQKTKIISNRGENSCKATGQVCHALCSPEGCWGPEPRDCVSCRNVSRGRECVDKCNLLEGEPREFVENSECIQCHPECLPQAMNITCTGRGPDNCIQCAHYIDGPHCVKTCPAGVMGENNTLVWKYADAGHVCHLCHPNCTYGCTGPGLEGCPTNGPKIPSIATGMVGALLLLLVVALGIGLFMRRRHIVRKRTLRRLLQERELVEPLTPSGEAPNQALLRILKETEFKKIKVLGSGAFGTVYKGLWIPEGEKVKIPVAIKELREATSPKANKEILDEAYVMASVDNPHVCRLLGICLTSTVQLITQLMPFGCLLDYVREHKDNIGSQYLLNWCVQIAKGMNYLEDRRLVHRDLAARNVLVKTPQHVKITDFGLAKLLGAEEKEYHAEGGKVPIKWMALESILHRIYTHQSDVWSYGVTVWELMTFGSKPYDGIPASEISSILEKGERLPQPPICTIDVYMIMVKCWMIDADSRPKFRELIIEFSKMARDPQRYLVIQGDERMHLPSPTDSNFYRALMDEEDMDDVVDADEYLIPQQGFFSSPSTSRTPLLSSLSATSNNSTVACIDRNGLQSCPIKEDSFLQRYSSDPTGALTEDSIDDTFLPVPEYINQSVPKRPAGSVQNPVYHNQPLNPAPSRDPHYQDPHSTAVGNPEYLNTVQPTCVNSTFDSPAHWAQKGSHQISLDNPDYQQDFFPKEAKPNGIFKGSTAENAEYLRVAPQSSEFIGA
EGFR, sequence (P00533 25-1210): as above

| SMILES | IC50 (EGFR wild type (EGFR WT); [2]) [µM] | IC50 (ErbB2 WT; ErbB2 WT enzyme) [µM] | efflux ratio at 2 h, 1 µM (BCRP) | IC50 ([1]; ErbB2 YVMA phosphorylation) [µM] | IC50 (EGFR; EGFR enzyme) [µM] | IC50 (EGFR wild type (EGFR WT); [3]) [µM] | IC50 (ErbB2 WT; ErbB2 WT enzyme assay) [µM] | IC50 [1, 4] [µM] | IC50 (EGFR; EGFR enzyme assay) [µM] |
| --- | --- | --- | --- | --- | --- | --- | --- | --- | --- |
| C=CC(=O)N1C[C@H]2CC[C@@H]1CN2c1ccc2ncnc(Nc3ccc(Oc4cnc5c(c4)ncn5C)c(C)c3F)c2n1 [Example 236, 1-((1R,4R)-5-(4-((2-fluoro-3-methyl-4-((3-methyl-3H-imidazo[4,5-b]pyridin-6-yl)oxy)phenyl)amino)pyrido[3,2-d]pyrimidin-6-yl)-2,5-diazabicyclo[2.2.2]octan-2-yl)prop-2-en-1-one] | ≥ 5 | 1.17 | 6.8 | 0.0246 | ≥ 10 | – | – | – | – |
| C=CC(=O)N1C2CCC1CN(c1ccc3ncnc(Nc4cc(C)c(Oc5ccn6ncnc6c5)cc4F)c3n1)C2 [Example 443] | – | – | 10 | – | – | 2.82 | 0.0906 | 0.0255 | 4.15 |
| C=CC(=O)N1CCN(c2ccc3ncnc(Nc4ccc(Oc5ccc6c(c5)ncn6C)c(C(F)F)c4)c3n2)CC1 [Example 447] | – | – | 20.3 | – | – | ≥ 5 | 0.0292 | 0.0175 | ≥ 10 |
| C=CC(=O)N1CCC(c2ccc3ncnc(Nc4ccc(Oc5cnc6c(c5)ncn6C)c(C)c4)c3n2)CC1 [Example 273] | – | – | 15.3 | – | – | ≥ 5 | 0.0763 | 0.0257 | 5.64 |
| C=CC(=O)N1CCN(c2ccc3ncnc(Nc4ccc(Oc5ccn6ncnc6c5)c(Cl)c4)c3n2)CC1 [Example 97, 1-(4-(4-((4-([1,2,4]triazolo[1,5-a]pyridin-7-yloxy)-3-chlorophenyl)amino)pyrido[3,2-d]pyrimidin-6-yl)piperazin-1-yl)prop-2-en-1-one] | 0.413 | 0.0032 | 47 | 0.0032 | 0.344 | – | – | – | – |
| C=CC(=O)N1C[C@H]2C[C@@H]1CN2c1ccc2ncnc(Nc3ccc(Oc4ccc5c(c4)ncn5C)c(C)c3F)c2n1 [Example 83, 1-((1R,4R)-5-(4-((2-fluoro-3-methyl-4-((1-methyl-1H-benzo[d]imidazol-5-yl)oxy)phenyl)amino)pyrido[3,2-d]pyrimidin-6-yl)-2,5-diazabicyclo[2.2.1]heptan-2-yl)prop-2-en-1-one] | ≥ 5 | 0.0815 | 6.3 | 0.0096 | 5.58 | – | – | – | – |
| C=CC(=O)N1CCCN(c2ccc3ncnc(Nc4ccc(Oc5ccn6ncnc6c5)c(Cl)c4F)c3n2)CC1 [Example 98, 1-(4-(4-((4-([1,2,4]triazolo[1,5-a]pyridin-7-yloxy)-3-chloro-2-fluorophenyl)amino)pyrido[3,2-d]pyrimidin-6-yl)-1,4-diazepan-1-yl)prop-2-en-1-one] | 2.68 | 0.0511 | 11 | 0.0189 | 3.36 | – | – | – | – |
| C=CC(=O)N1CCC(c2ccc3ncnc(Nc4ccc(Oc5ccc6c(c5)ncn6C)c(C)c4)c3n2)CC1C (centres unmarked) [Example 123, 1-(2-methyl-4-(4-((3-methyl-4-((1-methyl-1H-benzo[d]imidazol-5-yl)oxy)phenyl)amino)pyrido[3,2-d]pyrimidin-6-yl)piperidin-1-yl)prop-2-en-1-one] | ≥ 5 | 0.0604 | 7.3 | 0.0076 | ≥ 10 | – | – | – | – |
| C=CC(=O)N1CCC(Oc2nc3c(Nc4ccc(Oc5ccc6cn(C)nc6c5)c(C)c4)ncnc3cc2OC)CC1 [Example 157, 1-(4-((7-methoxy-4-((3-methyl-4-((2-methyl-2H-indazol-6-yl)oxy)phenyl)amino)pyrido[3,2-d]pyrimidin-6-yl)oxy)piperidin-1-yl)prop-2-en-1-one] | 1.74 | 0.209 | 6.8 | 0.0213 | 2.27 | – | – | – | – |
| C=CC(=O)N1C2CC1CN(c1ccc3ncnc(Nc4cc(C)c(Oc5cnc6c(c5)ncn6C)cc4F)c3n1)C2 [Example 446] | – | – | 19.4 | – | – | ≥ 5 | 2.56 | 0.028 | ≥ 10 |
| C=CC(=O)N1C2CCC1CN(c1ccc3ncnc(Nc4ccc(Oc5ccn6ncnc6c5)c(C)c4F)c3n1)C2 [Example 444] | – | – | 9 | – | – | 0.352 | 0.012 | 0.0059 | 0.379 |
| C=CC(=O)N1CCN(c2ccc3ncnc(Nc4cc(Cl)c(Oc5ccn6ncnc6c5)cc4F)c3n2)C[C@@H]1COC [Example 346] | – | – | 14.2 | – | – | 1.44 | 0.0143 | 0.0154 | 1.37 |
| C=CC(=O)N1CCC(c2ccc3ncnc(Nc4ccc(Oc5cnc6c(c5)ncn6C)c(Cl)c4)c3n2)CC1 [Example 271] | – | – | 37 | – | – | ≥ 5 | 0.0519 | 0.0316 | 3.45 |
| C=CC(=O)N1C[C@H](c2ccc3ncnc(Nc4ccc(Oc5ccn6ncnc6c5)c(C)c4F)c3n2)C[C@H]1COC (mixture of isomers) [Example 306] | – | – | 6.8 | – | – | 3.09 | 0.0592 | 0.0202 | 1.93 |
| C=CC(=O)N1CC(Sc2ccc3ncnc(Nc4ccc(Oc5ccn6ncnc6c5)c(C)c4F)c3n2)C1 [Example 63, 1-(3-((4-((4-([1,2,4]triazolo[1,5-a]pyridin-7-yloxy)-2-fluoro-3-methylphenyl)amino)pyrido[3,2-d]pyrimidin-6-yl)thio)azetidin-1-yl)prop-2-en-1-one] | 0.426 | 0.0314 | 3.8 | 0.0195 | 0.508 | – | – | – | – |
| C=CC(=O)N1CCN(c2ccc3ncnc(Nc4ccc(Oc5cnc6c(c5)ncn6C)c(C)c4F)c3n2)C[C@@H]1C [Example 437] | – | – | 9.3 | – | – | 4.91 | 0.148 | 0.0186 | 9.73 |
| C=CC(=O)N1C[C@H]2CN(c3ccc4ncnc(Nc5ccc(Oc6ccc7c(c6)ncn7C)c(C)c5)c4n3)C[C@H]21 [Example 116, 1-((1R,5S)-3-(4-((3-methyl-4-((1-methyl-1H-benzo[d]imidazol-5-yl)oxy)phenyl)amino)pyrido[3,2-d]pyrimidin-6-yl)-3,6-diazabicyclo[3.2.0]heptan-6-yl)prop-2-en-1-one] | 1.58 | 0.0523 | 22.4 | 0.0102 | 2.58 | – | – | – | – |
| C=CC(=O)N1CCC(c2ccc3ncnc(Nc4ccc(Oc5ccc6c(c5)ncn6C)c(C)c4)c3n2)CC1 [Example 34, 1-(4-(4-((3-methyl-4-((1-methyl-1H-benzo[d]imidazol-5-yl)oxy)phenyl)amino)pyrido[3,2-d]pyrimidin-6-yl)piperidin-1-yl)prop-2-en-1-one] | ≥ 5 | 0.0287 | 6.7 | 0.0095 | 6.87 | – | – | – | – |
| C=CC(=O)N1[C@@H]2CC[C@H]1C[C@H](c1ccc3ncnc(Nc4ccc(Oc5ccc6c(c5)ncn6C)c(C)c4F)c3n1)C2 [Example 195, 1-((1R,3s,5S)-3-(4-((2-fluoro-3-methyl-4-((1-methyl-1H-benzo[d]imidazol-5-yl)oxy)phenyl)amino)pyrido[3,2-d]pyrimidin-6-yl)-8-azabicyclo[3.2.1]octan-8-yl)prop-2-en-1-one] | 1.06 | 0.0597 | 1.7 | 0.0179 | 2.55 | – | – | – | – |
